The results in this text go back to patent publication EP3335730A1, “COMPOUNDS FOR TREATING X-LINKED ADRENOLEUKODYSTROPHY” (Fundació Institut de Recerca Biomédica de Bellvitge …, priority 2016, dated 2018).

Data set [1] relates to Abcd1^-/Abcd2^-/- mice. The data set can be described thus: Immunohistochemistry of axonal degeneration, microgliosis and astrocytosis in spinal cord. Particulars: 17-month-old double knockout mice, 0.4% w/w TUDCA in chow for 4 months from 13 months of age. Type of data set: in vivo. How it is done: (§1) The bile acid tauroursodeoxycholic acid TUDCA (Prodotti Chimici e Alimentari S.p.A., Italy) was mixed into AIN-76A chow (Dyets) at 0.4% w/w. Male mice were randomly assigned to one of the following groups: wild-type mice (n=10) that received normal AIN-76A chow, Abcd1^-/- mice (n=10) that received normal AIN-76A chow and Abcd1^-l- mice (n=10) that received AIN-76A chow containing TUDCA. The animals were treated for 3 months starting at 9 months of age to assess its effect on the progression of the biochemical signs of X-linked adrenoleukodystrophy. The double knockout mice and their control littermates were randomly assigned to one of the following groups: wild-type mice (n=10) that received normal AIN-76A chow; double knockout mice (n =10) that received normal AIN-76A chow; and double knockout mice (n =10) that received AIN-76A chow containing TUDCA. The animals were treated for 4 months starting at 13 months of age to coincide with the onset of clinical signs. TUDCA had no effect on weight or food intake under either treatment protocol.
[…] Immunohistochemistry was carried out with the avidin-biotin peroxidase method and at least five sections of the spinal cord were analysed per animal and per stain. […] The results were expressed as the mean ± standard deviation. […]

In data set [2] the test system is Abcd1^-/Abcd2^-/- mice. The data set can be described thus: Hindlimb clasping test. Format: in vivo. Particulars: double knockout mice with TUDCA; untreated score 1, wild type 2; Figure 3A. How it is done:
(§2) The bile acid tauroursodeoxycholic acid TUDCA (Prodotti Chimici e Alimentari S.p.A., Italy) was mixed into AIN-76A chow (Dyets) at 0.4% w/w. Male mice were randomly assigned to one of the following groups: wild-type mice (n=10) that received normal AIN-76A chow, Abcd1^-/- mice (n=10) that received normal AIN-76A chow and Abcd1^-l- mice (n=10) that received AIN-76A chow containing TUDCA. The animals were treated for 3 months starting at 9 months of age to assess its effect on the progression of the biochemical signs of X-linked adrenoleukodystrophy. […]
(§3) For behavioral testing, assessment of hindlimb clasping was done by suspending mice from their tails until it reached a vertical position, but allowing the mice to grab the grill of the lid of the cage with the forelimbs, adapted from Dumser et al. cited supra. Hindlimb reflex was analysed for 10s in three consecutive trials separated by 5 min rest. […]
(§4) Locomotor deficits in Abcd1 /Abcd2^-/- mice were evaluated using clasping, treadmill and bar cross experiments after TUDCA treatment as described (Dumser M- et al., 2007 cited supra, Launay N. et al., 2015 cited supra). […]

Data set [3] relates to Abcd1^-/Abcd2^-/- mice. The data set can be described thus: Bar cross test. Format: in vivo. Particulars: double knockout mice with TUDCA; Figure 3C. On the procedure:
as §2, §3, §4

In another data set the test system is Abcd1 null mice. The data set can be described thus: Immunoblot (Western blot) of ER stress and UPR markers in spinal cords of X-ALD mice. Format: in vivo. Particulars: diet with 0.4 % (wt/wt) TUDCA for 3 months.
Description: The generation and genotyping of Abcd1 null mice have been previously described (Pujol A. et al., Hum Mol Genet 2002; 11:499-505, Lu JF. et al., Proc.Natl.Acad.Sci.U.S.A 1997; 94:9366-9371.). Mice used for experiments were of a pure C57BL/6J background. Abcd1 null and WT mice were separated into control and treated groups. Treated groups were fed with a mixture of antioxidants that included 1000 iu/kg Vitamin E and 0.5% α-lipoic acid in the diet and 1% N-acetyl-cysteine (NAC) in water. Daily feedings were initiated at 8 months of age and were continued for 4 months until sacrifice.
as §2
Tissues were lysed in ice-cold RIPA buffer (50 mM Tris-HCl, pH 8, 12 mM deoxycholic acid, 150 mM NaCl and 1% NP40, supplemented with Complete Protease Inhibitor Cocktail, Roche) using a Teflon-on-glass homogenizer and then centrifuged at 1500 x g for 10 min at 4°C. The protein concentration was determined using a BCA protein assay kit (Thermo Fisher Scientific, Inc.). […]
To determine whether ER stress is regulated by redox imbalance in vivo, the inventors treated with antioxidants during 4 months the presymptomatic Abcd1 null mice at 8 months of age. Next, they assessed by Western Blots the presence of ER stress and UPR responses.
The mouse model of the disease, the Abcd1 null mouse, develops a late onset axonopathy that resembles the most frequent X-linked adrenoleukodystrophy phenotype, AMN. […] Then, the inventors determined the protein levels of ER stress marker dysregulated in the Abcd1 null mice. […]
On the technique in general: A western blot detects proteins with antibodies after separation by electrophoresis.

Data set [4] deals with Abcd1^-/Abcd2^-/- mice. The data set can be described thus: Treadmill test. Format: in vivo. The conditions noted are these: double knockout mice, after 3 months of treatment with TUDCA; Figure 3B. On the procedure:
as §2, §3, §4

Data set [5] can be described thus: Weight and food intake during treatment in chow. Format: in vivo, mice. Particulars: 0.4% w/w in AIN-76A chow, either treatment protocol (3 months from 9 months; 4 months from 13 months). On the procedure:
as §1

Consider `C[C@H](CCC(=O)NCCS(=O)(=O)O)[C@H]1CC[C@H]2[C@@H]3[C@@H](O)C[C@@H]4C[C@H](O)CC[C@]4(C)[C@H]3CC[C@]12C` [TUDCA, 3α,7β-Dihydroxy-5β-cholanoyltaurine], for which the axonal damage markers result in the data set with Abcd1^-/Abcd2^-/- mice [1] (APP and synaptophysin accumulation, Figures 2A, 2B) was “strikingly reduced to control levels”. Besides, the “numbers of reactive astrocytes and reactive microglia” value in the data set on Abcd1^-/Abcd2^-/- mice [1] (GFAP and Iba-1 staining, Figure 2A) is reported as “strikingly reduced to control levels”. The compound further returned a median clasping score with Abcd1^-/Abcd2^-/- mice [2] of 1.75. In addition, in the data set with Abcd1^-/Abcd2^-/- mice [3], the number of slips entry was “normalized” and the “time necessary to cross the bar” value is “normalized”. Besides, the “ATF6, P-PERK, P-eif2α/eif2α, ATF4 and CHOP levels” value in the data set with Abcd1 null mice (Figure 1C) is on record as “normalized”. For the same compound, in the data set on Abcd1 null mice (Figure 1D), the PDI upregulation entry was “prevented”; the “levels of the ER chaperones GRP78 and GRP94” value was “normalized”. Also, the “shock times and number of shocks” value with Abcd1^-/Abcd2^-/- mice [4] is on record as “indistinguishable from wild types”. Further, in data set [5], the food intake entry is on record as “no effect” and the weight entry is recorded as “no effect”.
